Data: patent US4778796A, “ω-(3-pyridyl)alkenamide derivatives and anti-allergenic pharmaceutical compositions containing same” (Dainippon Pharmaceutical Co., Ltd., priority 1985, dated 1988)
Where a name gives a salt, the structure may show the parent alone. Read-outs that look alike come from different tables or passages of the source.

Assays:
[1] = Acute lethal toxicity in mice; conditions: mouse, in vivo; oral, mortality observed for two weeks
Protocol: Test 3 Acute lethal toxicity in mice
Test compounds were suspended in a 0.5% aqueous tragacanth solution. LD50 values were calculated according to the method of Litchfield and Wilcoxon [cf. J. Pharmacol. Exp. Ther., 96, 99 (1949)].

[2] = test system: histamine-induced contraction of isolated guinea pig trachea; assay: Inhibitory effect on histamine-induced contraction of isolated guinea pig trachea; parameters: species or system guinea pig (male Hartley); conditions: 3×10^-5 M histamine; isolated guinea pig trachea; read-out: Anti-hist. activity IC50
Protocol: (2) Inhibitory effect on histamine-induced contraction of isolated guinea pig trachea:
Male Hartley guinea pigs (400-700 g) were used. Zig-zag strips of guinea pig trachea were prepared by the method of Emmerson and Mackay [cf. J. Pharm. […] Dose-response curves for histamine were obtained before and 5 minutes after the addition of test compounds. Inhibitory rate was calculated from contraction heights in 3×10^-5 M of histamine without vs. with test compound.

[3] = molecular target: T1, 5-lipoxygenase (Cavia porcellus, UniProt A0A286X958); assay: Inhibitory effect on 5-lipoxygenase activity in guinea pig leukocytes; assay type: biochemical, guinea pig (male Hartley); conditions: 10^-4 M
T1 construct: The cytosol fraction of peritoneal exudate cells from male Hartley guinea pigs (400-700 g) was used as 5-lipoxygenase; from tissue; host or cells: cytosol fraction of peritoneal exudate cells (leukocytes) of male Hartley guinea pigs
T1 sequence (A0A286X958 1-674): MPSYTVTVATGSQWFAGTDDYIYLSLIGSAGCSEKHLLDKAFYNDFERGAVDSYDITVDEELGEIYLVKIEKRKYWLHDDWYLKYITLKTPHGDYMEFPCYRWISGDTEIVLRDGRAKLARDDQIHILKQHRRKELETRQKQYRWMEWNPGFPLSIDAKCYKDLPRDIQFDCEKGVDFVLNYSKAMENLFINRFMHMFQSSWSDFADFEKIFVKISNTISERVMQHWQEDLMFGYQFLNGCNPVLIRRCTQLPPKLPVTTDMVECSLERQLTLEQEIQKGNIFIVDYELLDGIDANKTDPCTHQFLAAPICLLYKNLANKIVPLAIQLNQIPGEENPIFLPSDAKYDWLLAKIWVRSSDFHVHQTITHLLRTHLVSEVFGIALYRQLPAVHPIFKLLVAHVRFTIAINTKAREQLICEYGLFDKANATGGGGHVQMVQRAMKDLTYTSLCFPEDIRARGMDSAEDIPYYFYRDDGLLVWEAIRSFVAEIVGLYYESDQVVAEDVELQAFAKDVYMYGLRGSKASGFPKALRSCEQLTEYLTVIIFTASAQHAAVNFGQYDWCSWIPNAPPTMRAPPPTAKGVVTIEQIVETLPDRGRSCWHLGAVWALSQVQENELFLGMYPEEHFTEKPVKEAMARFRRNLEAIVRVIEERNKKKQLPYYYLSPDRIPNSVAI
Protocol: (1) Inhibitory effect on 5-lipoxygenase activity in guinea pig leukocytes:
This test was carried out by the method of Miyamoto and Obata (cf. "Perspectives in Prostaglandin Research," ed. by Y. Shiokawa et al., Excepta Medica, Amsterdam-Oxford-Princeton, 1983, p78) with minor modifications.
The cytosol fraction of peritoneal exudate cells from male Hartley guinea pigs (400-700 g) was used as 5-lipoxygenase. The standard reaction mixture contained 50 mM potassium phosphate buffer, 1 mM CaCl2, 1 mM glutathione, 1 mM adenosine triphosphoric acid, 10 μM indomethacin and the enzyme. The mixture was incubated for 5 minutes at 30° C. after addition of [1-^14 C]arachidonic acid (0.02 μCi). The reaction was terminated by addition of 0.6 ml of the cold organic solvents (diethyl ether/methanol/0.2M citric acid=30/4/1). The organic layer (300 μl) was applied onto a precoated silica gel 60F254 glass plate (E. Merck, West Germany). Radioactivity on the plate was monitored by a radiochromatogram scanner (Packard, U.S.A.). 5-Lipoxygenase activity was calculated according to the following equation. [formula]
The effects of the test compounds were expressed in terms of percent inhibition.

[4] = test system: human basophils; assay: Inhibitory effect on histamine release induced by anti-human IgE antibody from healthy human basophils; assay type: cell-based; conditions: Homo sapiens, read-out: Histamine release inhibit. IC50
Protocol: (3) Inhibitory effect on histamine release induced by anti-human IgE antibody from healthy human basophils:
Basophils from nonallergic volunteers were collected by the method of Levy and Osler [cf. […] The cells were washed once with a cold Tris-A buffer at pH 7.4 (25 mM Tris, 120 mM NaCl, 5 mM KCl and 0.03% human serum albumin) containing 4 mM EDTA and twice with Tris-A buffer. After washing, the cells were resuspended at 5-10×10^6 leukocytes/ml in Tris-ACM buffer at pH 7.6 (Tris-A buffer, 0.6 mM CaCl2 and 1 mM MgCl2). One ml of the cell suspension was incubated with 0.1 ml of a solution of test compound or vehicle for 15 minutes at 37° C., and then for further 45 minutes with 0.1 ml of anti-human IgE antibody. After ice-cooling, the reaction mixtures were centrifuged at 1,200 rpm for 8 minutes at 4° C. The supernatant fluids and the cells were analysed separately for histamine by a modification of the spectrophotofluorometric technique of Shore et al. [cf. […] Histamine release rate was calculated according to the following equation. [formula] A: total histamine (supernatant+cell) B: supernatant histamine without anti-IgE
C: supernatant histamine with anti-IgE
Inhibitory rate was calculated from histamine release rates without vs. with test compound.

[5] = test system: passive cutaneous anaphylaxis (PCA); assay: Inhibitory effect on passive cutaneous anaphylaxis (PCA) in rats; assay type: in vivo, rat (male Wistar); conditions: Rattus norvegicus, po, read-out: Inhibition (PCA in rats)
Protocol: (1) Inhibitory effect on passive cutaneous anaphylaxis (PCA) in rats:
This test was carried out by the method of Perper et al. [cf.
Male Wistar rats (130-180 g) were injected with 0.1 ml of a dilute solution of mouse antiserum to egg albumin in two sites of the shaved ventral skin. Forty-eight hours later each rat was challenged by an intravenous injection of 2 mg of the antigen together with 1 ml of a 0.5% Evan's blue saline solution. The rats were sacrificed 30 minutes after the challenge. The area of the blueing lesions was measured on the undersurface of the skin. The average value of the two lesions of each rat was regarded as the response of the rat. Test compounds in a dose of 20 mg/kg, dissolved or suspended in a 0.5% aqueous tragacanth solution, were administered orally 1 hour before the antigen challenge. The inhibitory rate was determined by comparing the responses of the rats given each test compound with those of the rats given only a 0.5% aqueous tragacanth solution. Each group of 3 rats was used for each test compound. The mouse antiserum to egg albumin was produced by the method of Levine and Vaz [cf. Int. Arch. Allergy Appl.

[6] = test system: contact hypersensitivity to oxazolone; assay: Inhibitory effect on contact hypersensitivity to oxazolone in mice; assay type: in vivo, mouse (male ICR); conditions: topical, 1.0 mg/ear; 24 hours after challenge
Protocol: (3) Inhibitory effect on contact hypersensitivity to oxazolone in mice:
This test was carried out by the method of Evans et al. [cf. Brit.
Male ICR mice (18-20 g) were used. The abdominal region of the mice was carefully clipped with an electric clipper, and 0.1 ml of a 0.5 w/v % oxazolone solution in absolute ethanol was gently rubbed into the clipped area. Five days after the sensitization 20 μl of a 0.5 w/v % oxazolone solution in acetone or chloroform, or the solution containing test compound was applied to both sides of the right ear. The left ear was not treated. Twenty-four hours after the challenge, the animals were sacrificed with diethyl ether. The circular parts (5.5 mm in diameter) of both ears were removed by punching and then weighed. The inhibitory rate was determined by comparing the ear swelling of the mice treated with oxazolone containing test compound with that of the mice treated with oxazolone. Each group of 8 mice was used for each dose of the test compound.

[7] = test system: experimental asthma; assay: Inhibitory effect on experimental asthma in rats; assay type: in vivo, rat (male Wistar); conditions: Rattus norvegicus, po
Protocol: (2) Inhibitory effect on experimental asthma in rats: This test was carried out by the method of Church and Miller [cf. Brit. […] Male Wistar rats (200-250 g) were sensitized by an intraperitoneal injection of 1 ml of a 0.01% egg albumin solution containing 1 mg of Al(OH)3. Two weeks later, the rats were anesthetized with 1.3 g/kg of urethane. The trachea and jugular vein were cannulated. Respiratory volume and velocity were measured by attaching one end of the tracheal cannula to respiratory volume meter connected to a carrier amplifier and an integrator. The rats were challenged by an intravenous injection of 4 mg/kg of egg ablumin 30 minutes after the anesthesia. Test compounds, dissolved or suspended in a 0.5% aqueous tragacanth solution, were administered orally 1 hour before the antigen challenge. Each group of 4 rats was used for each dose of the test compound. ED50 values were calculated from the best fit linear regression line of inhibitory rates of respiratory volume and velocity in each dose.

CN1CCC(=C2c3ccccc3CC(=O)c3sccc32)CC1 [Ketotifen fumarate, reference compound]
LD50 at 336 h [1]: 537 mg/kg
IC50 [2]: 2.9 nM
5-lipoxygenase inhibiting activity (in words) [3]: did not exhibit any significant inhibiting activity
inhibition at 100 µM ([3]; read-out: 5-Lipoxygenase inhibit. activity, Inhibition): 11.5%
IC50 [4]: > 100000 nM
inhibition in vivo at 20 mg/kg [5]: 54.7%
% Inhibition of ear swelling [6]: 49.0%
ED50 ([7]; read-out: ED50, respiratory velocity): 20.5 mg/kg
ED50 ([7]; read-out: ED50, respiratory volume): 22.6 mg/kg
